Positions count from the first letter of the chain named. Read-outs that look alike come from different tables or passages of the source.
Key:
[1] = target: T1, hBGT1 (Homo sapiens, UniProt P48065); test: [3H]GABA uptake assay, CHO cells stably expressing hBGT1; assay type: cell-based; details: read-out: inhibition of [3H]GABA uptake; screening concentration 100 μM; CHO cells
T1 construct: expressed in transfected cells
T1 sequence (P48065 1-614): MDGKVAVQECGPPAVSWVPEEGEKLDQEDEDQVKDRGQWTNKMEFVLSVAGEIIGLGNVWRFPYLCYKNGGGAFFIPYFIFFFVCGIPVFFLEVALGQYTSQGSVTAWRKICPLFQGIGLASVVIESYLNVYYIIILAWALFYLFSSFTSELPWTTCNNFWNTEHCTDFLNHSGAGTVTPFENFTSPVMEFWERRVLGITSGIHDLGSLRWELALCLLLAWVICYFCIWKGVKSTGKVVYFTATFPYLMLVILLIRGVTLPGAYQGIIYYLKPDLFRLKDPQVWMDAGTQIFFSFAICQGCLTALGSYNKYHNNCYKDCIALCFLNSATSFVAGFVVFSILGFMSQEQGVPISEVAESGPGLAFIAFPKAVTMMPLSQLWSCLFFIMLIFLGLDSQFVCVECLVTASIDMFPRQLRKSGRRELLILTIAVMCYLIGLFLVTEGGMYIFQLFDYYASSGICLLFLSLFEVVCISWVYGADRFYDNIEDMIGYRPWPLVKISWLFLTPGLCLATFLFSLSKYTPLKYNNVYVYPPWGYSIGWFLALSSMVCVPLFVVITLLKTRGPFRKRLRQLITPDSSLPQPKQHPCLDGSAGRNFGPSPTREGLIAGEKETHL
Procedure: All selected compounds were tested for their ability to inhibit human BGT1 (hBGT1) function.
The CHO cells were placed in 96-well plates (approximately 50,000 cells/well) for about 24 h before the experiment. […] After incubation, cells were washed 3 times with 100 μL/well ice-cold assay buffer, 150 μL/well MicroScint20 (PerkinElmer) was subsequently added before the plate was shaken for at least 1 h. The radioactivity of each well of the plate was measured on a TopCount NXT scintillation counter. […] Data presented are the pooled data of at least three independent experiments with three technical replicates if not stated otherwise in figure legends. Concentration–response curves were fitted by nonlinear regression to the sigmoidal concentration–response model with GraphPad Prism v 9.0.

[2] = test system: SH-SY5Y neuroblastoma cells; details: 24 h
Procedure: The model used mimics certain aspects of neurodegenerative diseases, where GABAergic dysfunction and neuronal death are prominent features. […] The neuroprotection studies were performed to determine the ability of compound 9 to prevent MPP^+ (1-methyl-4-phenylpyridinium) toxicity at a concentration of 1 mM, which was coincubated with compound 9 for 24 h. MPP^+ is a well-established neurotoxin that selectively damages neurons, making it a commonly used agent to model aspects of neurodegenerative conditions in vitro. It induces oxidative stress and mitochondrial dysfunction, leading to cell death. Cell viability was detected by a standard MTS assay.
Neuroprotection studies were performed according to the procedure described previously.[27] In brief, SH-SY5Y CRL-2266 (American Type Culture Collection, Manassas, VG) were seeded in microplate at a concentration of 2.5 × 10^4 cells/well in 100 μL of culture medium and cultured for 24 h at 37 °C and 5% CO2. […] Next, MPP^+ was added at a final concentration of 1 mM and the cells were placed in the incubator. After 24 h of the compound coincubation with MPP^+, the CellTiter 96 AQueous Nonradioactive Cell Proliferation Assay (MTS) was performed. The test was purchased from Promega (Madison, WI). The absorbance was measured using a microplate reader EnSpire (PerkinElmer, Waltham, MA) at 490 nm. All results were shown as mean ± SD. The statistical significances were calculated by GraphPad Prism 6.0 software.

[3] = test system: normal human astrocytes (NHA); test: Confocal imaging of astrocyte morphology after incubation in PBS (non-GABA conditions); assay type: cell-based; details: 500 μM GABA with 500 μM compound 9 in PBS; 72 h
Procedure: To this end, we tested whether blocking the transport of GABA under experimental non-GABA extracellular conditions may impair the homeostasis of these cells. […] Afterward, the cells were stained to visualize actin filaments using confocal microscopy. […] Nevertheless, further kinetic studies are necessary to verify this hypothesis.
NHA was grown on a coverslip in a 35 mm culture dish. After treatment, the cells were fixed (4% paraformaldehyde) and permeabilized (0.1% Triton X-100). Then, the samples were stained with Phalloidin-Atto 565 (Sigma-Aldrich, Inc.) according to the manufacturer’s protocol. Laser confocal microscope Nikon Eclipse Ti-E A1R-Si and Nikon NIS Elements AR software were used for cell imaging.

[4] = test system: BGT1; details: cited from earlier work
[5] = target: GABAA receptor; parameters: method as in PMID 34595152; details: agonist; cited from earlier work
[6] = target: T2, hBGT1 E52A (Homo sapiens, UniProt P48065, E52A); parameters: method as in PMID 34595152; details: ref 12; cited from earlier work
T2 construct: host or cells: tsA201 cells (transformed HEK293), transient expression
T2 sequence (P48065 1-614 E52A): T1 sequence (P48065 1-614) with E52A

[7] = test system: SH-SY5Y neuroblastoma cells; test: SH-SY5Y viability, MTS assay, 72 h; assay type: cell-based, human; details: 1 µM, reference cytostatic drug
From the text: OC(=O)[C@H]1CNCC[C@@H]1S OC(=O)CCCCCCN1C=CN=C1
OC(=O)C1CCNCC1 N[C@]12C[C@H]1[C@@H](CC2)C(O)=O
OC(=O)C1=CCNCC1 N[C@H]1C[C@@H]1CC(O)=O
O[C@@H]1CNCC[C@H]1C(O)=O N[C@@H]1C[C@@H]1CC(O)=O
OC(=O)CCCC1=NC=CN1 N[C@H]1C[C@H]1CC(O)=O
OC(=O)\C=C\C1=NC=CN1 NC[C@H]1C[C@H]1C(O)=O
OC(=O)\C=C\C1=CNC=N1 NC[C@@H]1C[C@@H]1C(O)=O
OC(=O)\C=C\C1=CN=CN1 NC[C@@H]1C[C@H]1C(O)=O
OC(=O)CCC1=CNC=N1 NC[C@H]1C[C@@H]1C(O)=O
OC(=O)CCC1=CN=CN1 NC1=CC=C(C=N1)C(O)=O
OC(=O)CCN1C=CN=C1 NC1=NC=C(C=N1)C(O)=O
OC(=O)CCCC1=NC=CN1 NC(=N)N1CCC(CC1)C(O)=O
S2. IC50 determination at GAT3 stable GAT3-CHO, compound 9
Figure S1. IC 50 determination for compound 9. Data represent one of three independent experiments, each performed in three technical replicates.
S3. […]
The influence of compound 9 on viability of SH-SY5Y neuroblastoma cells was determined using Aqueous Non-Radioactive Cell Proliferation Assay. […] Upon adding MTS and following 2h incubation, cell viability was calculated and […]
The effect of compound 9 on viability and proliferation of SH-SY5Y was determined with CellTiter 96® Aqueous Non-Radioactive Cell Proliferation Assay (MTS, Promega, Madison, WI, USA). […] Next MTS was added in fresh medium and after 2h of incubation the absorbance was measured at 490 nm using a microplate reader EnSpire (PerkinElmer, Waltham, MA USA). All results were shown as mean ± SD calculated from two independent experiments. […]

[8] = test system: mouse models; details: cited from earlier work

Question: Which inhibition at 100 µM [1] does the source give for NCc1cc(C(=O)O)[nH]n1 [Compound 11] here?
Answer: 26%

Question: With C[n+]1ccc(-c2ccccc2)cc1 [MPP^+, 1-methyl-4-phenylpyridinium, reference compound] as the molecule, how does the “viability of SH-SY5Y cells” value ([2]; neurotoxin 1 mM) read?
Answer: significantly reduced the viability

Question: Which “effect on compound 9-induced morphological changes of astrocytes” value [3] does the source give for NCCCC(=O)O [GABA, γ-Aminobutyric acid, reference compound] here?
Answer: prevented these changes

Question: What about the “cell viability compared to MPP+ alone” value ([2]; GABA 10 μM, positive control, 1 mM MPP+) of the same molecule?
Answer: significantly increased cell viability

Question: Which results are given for N[C@@]12CC[C@H](C(=O)O)[C@@H]1C2 [bicyclo-GABA, (1S,2S,5R)-5-aminobicyclo[3.1.0]hexane-2-carboxylic acid]?
Answer: IC50 ([4]; ref 11): 0.59 µM; IC50 ([4]; ref 12): 1.5 µM; EC50 [5]: 5.1 µM; change in activity on substitution of Glu52 with alanine [6]: drastic increase in activity

Question: With COc1cccc2c1C(=O)c1c(O)c3c(c(O)c1C2=O)C[C@@](O)(C(=O)CO)C[C@@H]3O[C@H]1C[C@H](N)[C@H](O)[C@H](C)O1 [doxorubicin, reference compound] as the molecule, how does the “impact on SH-SY5Y viability” value [7] read?
Answer: significantly decreased SH-SY5Y viability

Question: With O=C(O)CC1CNCCO1 (stereo not drawn) [Compound 3] as the molecule, how does the inhibition at 100 µM [1] read?
Answer: 40%

Question: With Cc1ccsc1C(=CCCN(C)C1CCCc2o[nH]c(=O)c21)c1sccc1C (stereo not drawn) [EF1502] as the molecule, how does the anticonvulsant properties ([8]; ref 13) read?
Answer: anticonvulsant properties

Question: And the “anticonvulsant effect when coadministered with tiagabine” value ([8]; ref 14)?
Answer: synergistic effect
